Experimental data published in patent US11576913B2 (priority 2018, dated 2023).

Assays:
[1] = tested on: healthy, non-dependent, recreational sedative users; test: Human abuse potential study, adverse events and tolerability; format: in vivo; conditions: N = 50
Method: Adverse events were coded to MedDRA terms. Data for AEs were analyzed using the treatment-emergent signs and symptoms (TESS) philosophy. Treatment-emergent signs and symptoms are defined as AEs that: • Emerge during treatment, having been absent at pretreatment; or • Reemerge during treatment, having been present at pretreatment but stopped prior to treatment; or • Worsen in intensity during treatment relative to the pretreatment state, when the AE is continuous.
Subjects were counted only once in the incidence count for a specific MedDRA Preferred Term, although a MedDRA Preferred Term might be reported more than once for a particular subject. Separate summaries will be provided for Treatment-emergent AEs (“TEAEs”) by maximum intensity (mild, moderate, severe) and relationship (yes, no) to study drug. A TEAE was considered related to study drug if the investigator reported the event to be “definitely, probably, possibly, or unlikely” related to treatment on the CRF.

[2] = tested on: healthy, non-dependent, recreational sedative users; test: Human abuse potential study, Drug Liking VAS; format: in vivo; conditions: for Drug Liking VAS - EMAX LSMean: N = 50, 100 point bipolar scale; for Drug liking from placebo, Triazolam 1 mg compared with Triazolam 0.5 mg (words): 1 mg vs 0.5 mg
Method: This study was designed as a randomized, single-dose, double-blinded, double dummy, crossover study. The study population was healthy, nondependent recreational polydrug users with a history of Central Nervous System (CNS) depressant use.
Subjects were screened no more than 28 days before check-in of period 1. Study drug was administered in each period according to the study randomization schedule. During Qualification, there was a minimum 24 hour washout period between each study drug administration. During the Treatment phase, there was a minimum 48-hour washout period between each study drug administration. Subjects were confined to the unit the day prior to, and for at least approximately 24 hours following, study drug administration during each period. If subjects were discharged between treatment periods, subjects returned to the unit the day prior to dosing.
The Qualification Phase was designed to ensure that polydrug abusing subjects with self-reported recreational CNS depressant/sedative drug experience were able to tolerate and discriminate between orally administered triazolam tablets and placebo as well as to report positive subjective effects of the drug in a controlled laboratory setting. This phase was also used to exclude “placebo responders”, i.e., subjects who report subjective effects of placebo. This phase also helped familiarize subjects with, and trained them in the use of, various scales and questionnaires that measure subjective effects.
The comparators in an abuse potential study are typically controlled substances from the same pharmacologic class as the investigational drug. However, Compound (1C) is a novel drug class for which no controlled substances/drugs of abuse are available for comparison. […] There was no evidence of other effects of interest to abusers, such as perceptual disturbances or stimulation. […] Placebo control was used to establish the frequency and magnitude of changes in clinical endpoints that may occur in the absence of active treatment as well as to minimize subject and investigator bias.
In all of the study phases, treatments were blinded to the greatest extent possible to reduce potential bias during data collection and evaluation of clinical endpoints. Because study subjects were recreational drug users and familiar with the effects of the drug substances being studied, the double-dummy technique was be used in the Treatment Phase to maintain blinding. Subjects received tablets orally in each treatment period. Placebo was matched in size and shape to each of the tablet types, and a method to blind subjects will be employed.
For each phase, subjects received treatments according to the randomization schema. During the Treatment Phase, subjects were be randomized to 1 of sequences in a 6×6 Williams square crossover design.
Compound (1C) was administered orally in an immediate release tablet comprising the pharmaceutically acceptable excipients croscarmellose sodium (FMC Health and Nutrition, Philadelphia, Pa.), hydroxypropylcellulose (Ashland Inc., Covington, Ky.), microcrystalline cellulose (Dupont, Chicago, Ill.), mannitol (SPI Pharma, Wilmington, Del.), magnesium stearate (PlusPharma Inc., Vista, Calif.), and sodium lauryl sulfate (BASF Corp, Upper St. Clair, Pa.). […] Placebo tablets matching the Compound (1C) tablets were orally administered in the same way. The placebo tablets comprised the above-described pharmaceutically acceptable excipients but with no Compound (1C). Triazolam was administered at a dose of 0.5 or 1 mg. Trial endpoints are provided below.
Peak Maximum Effect (Emax) for Drug Liking (“at this moment”) visual analog scale (“VAS”), was measured by study participants providing a score on a 100 point bipolar scale with 100 as strong liking, 50 as the neutral point of neither liking nor disliking, and 0 as strong disliking. […]

[3] = triazolam tablets administered orally; cited from earlier work

For Cc1nnc2n1-c1ccc(Cl)cc1C(c1ccccc1Cl)=NC2 [Triazolam, triazolam, reference compound], the Amnesia ([1]; 0.5 mg) was 3 (6) n (%), the Ataxia ([1]; 0.5 mg) was 21 (42) n (%) and the Diplopia ([1]; 0.5 mg) was 4 (8) n (%). The Dizziness ([1]; 0.5 mg) was 7 (14) n (%), the Euphoric mood ([1]; 0.5 mg) was 1 (2) n (%) and the Headache ([1]; 0.5 mg) was 2 (4) n (%). The Hiccups ([1]; 0.5 mg) was 10 (20) n (%), the Nausea ([1]; 0.5 mg) was 0 n (%) and the Somnolence ([1]; 0.5 mg) was 45 (90) n (%). For the same compound, the Vision blurred ([1]; 0.5 mg) was 3 (6) n (%), the Amnesia ([1]; 1 mg) was 12 (24) n (%) and the Ataxia ([1]; 1 mg) was 28 (56) n (%). For the same compound, the Diplopia ([1]; 1 mg) was 5 (10) n (%), the Dizziness ([1]; 1 mg) was 6 (12) n (%) and the Euphoric mood ([1]; 1 mg) was 2 (4) n (%). The Headache ([1]; 1 mg) was 0 n (%), the Hiccups ([1]; 1 mg) was 14 (28) n (%) and the Nausea ([1]; 1 mg) was 1 (2) n (%). For the same compound, the Somnolence ([1]; 1 mg) was 49 (98) n (%), the Vision blurred ([1]; 1 mg) was 2 (4) n (%) and the “Drug Liking VAS - EMAX Diff from Placebo LSMean” value ([2]; 0.5 mg) was 20.4 points. The “Drug liking compared with placebo (words)” value ([2]; 0.5 mg) was “significant”, the “Drug Liking VAS - EMAX LSMean” value ([2]; 0.5 mg single oral dose) was 75.5 and the “Drug liking compared with placebo (words)” value ([2]; 0.5 mg, listed as triazolam) was “significantly greater than placebo”. The “Drug Liking VAS - EMAX Diff from Placebo LSMean” value ([2]; 1 mg) was 23.5 points, the “Drug liking compared with placebo (words)” value ([2]; 1 mg) was “significant” and the “Drug Liking VAS - EMAX LSMean” value ([2]; 1 mg single oral dose) was 78.6. For the same compound, the “Drug liking from placebo, Triazolam 1 mg compared with Triazolam 0.5 mg (words)” value [2] was “Triazolam 1 mg had greater drug liking from”, the “Drug liking from placebo, Triazolam 1 mg compared with Triazolam 0.5 mg (words)” value ([2]; listed as triazolam) was “greater drug liking from placebo than triazolam 0.5 mg” and the “Drug liking compared with placebo (words)” value ([2]; 1 mg, listed as triazolam) was “significantly greater than placebo”. For the same compound, the “Time to maximum concentration” value [3] was ~1.3 h.
